Data set [1] can be described thus: Metabolic stability in human microsomes. The class given is in vitro ADME. The note with it: for Metabolic stability in human microsomes: 37 °C, 0.5 mg/mL protein, 1 μM compound, 1 mM NADPH; for Comment on microsome assay: Table S3.
Data set [2] in a line: Peak area in microsome suspension compared with compounds in solution. It counts as in vitro ADME, human. The note with it: peak area 15 seconds after addition of NADPH versus same amount (125 nM) in H2O/EtOH. As for the experimental part:
(§1) were taken at three timepoints, and the degradation was compared to determine if it was dependent on NADPH. Compound 4k […]
(§2) without the addition of NADPH. […]
(§3) microsomes that need to be activated by a co -factor.
(§4) Table S5 Percent of peak area found in microsome suspension 15 seconds after the addition of NADPH in comparison with the same amount dissolved in H2O/EtOH
(§5) No. Area at 0.25 min. in Area in solution % found in microsomes/NADPH (125 nM) microsome
(§6) Comparison with compounds in solution. A comparison was made between the peak area of the compounds in solution with that obtained in the microsome suspension directly after the addition of NADPH (about 0.25 minutes) (Table S5). Before the addition of NADPH, the compounds are equilibrated in the microsome suspension for approximately five minutes. All compounds were prepared in solution by diluting a portion of the DMSO solutions with H2O/EtOH (75:25) to 125 nM (the final concentration of compounds for analysis in the microsome assay).
(§7) For the compounds where no results from the microsome assay could be reported due to low peak area (4d, 4e, 4f & 5), less than one percent of the expected peak area as compared with the area in solution was detected. […]
(§8) degrade rapidly before the addition of the co-factor after five minutes in incubation. For compounds 4g, 4h, 4i & 4j, which were […]
(§9) higher relative peak areas were found. […]
(§10) without NADPH was only found at 15% of the area seen in solution in the microsome suspension.

A short description of data set [3]: Solubility, screen method, phosphate buffer pH 7.4, 1% DMSO. It counts as physicochemical. The note with it: phosphate buffer with 1% DMSO; 100 mM phosphate buffer pH 7.4, 1% DMSO; assay range 0.1 to 100 μM.
The nature of data set [4]: Co-factor experiment: microsome suspension with and without NADPH. The note with it: for Co-factor experiment: degradation with and without addition of NADPH compared. It counts as in vitro ADME, human. As for the experimental part: Therefore, additional experiments comparing stability with and without the addition of NADPH cofactor and a very short incubation period were performed (Tables S4 and S5). […] Due to the rapid observed degradation in microsomes, we decided to investigate the stability of five compounds in human plasma, aiming for a broad range of stabilities (Table 2, Table S6). It should be noted that esterase-labile compounds are notoriously difficult to study in microsomal stability studies.[36]
Table S3 Evaluation of metabolic stability in human microsomes
No. Metabolic stability Comment
4k <10/<10 Low retention in chromatography
8 <10/<10 Low retention in chromatography.
Table S4 Results from the modified microsome assay where degradation with and without the addition of NADPH was compared […]
4d Very low peak area for the first time point,
4e Very low peak area for the first time point,
4f Very low peak area for the first time point,
5 Very low peak area for the first time point,
8 No degradation without co -factor […]
metabolism by the microsomes (consisting mainly of cytochrome P450 enzymes) or if it was due to other factors, the compounds (with the exception of 4k) were incubated in the microsome suspension both with and without the addition of NADPH. Samples […]
as §1, §2, §3, §4, §5, §6, §7, §8, §9, §10

The nature of data set [5]: Stability in simulated stomach acid (0.10 M HCl). The conditions noted are these: 0.10 M HCl (simulated stomach acid).
Data set [6] is described as follows: Chemical stability in 1.0 M NaHCO3 and 1.0 M HCl.
Data set [7] deals with porcine liver esterase. In words: Stability in FaSSIF supplemented with esterase.
For data set [8] the following is noted: cited from earlier work.

Several values for one entry are separate records, joined by “and”; a condition that tells them apart may be missing. Equal entries are not always repeated. Marks after values point to notes of the source that are not given here.

For orientation: solubility means how much of the substance goes into solution per volume. Usually half-life stands for how long it takes for the measured level to halve.

For the compound `CCCC(=O)Oc1cccc2[nH]cc(CCN(C)C)c12.O=C(O)/C=C/C(=O)O` [Compound 4b], in data set [1], the “Metabolic stability in human microsomes” value was >200^a μL/min/mg protein and >200 μL/min/mg protein; the “Comment on microsome assay” value was “Rapid degradation”. For the same compound, in data set [2], the “% found in microsome suspension” value stood at 0.3%. In data set [3], this compound showed a solubility of 87 µM. In addition, the Co-factor experiment entry in data set [4] is reported as “No degradation without co-factor”. Further, in data set [5], the half-life at 5 mM was > 167 h. For the same compound, the half-life at 24 h, 5 mM in data set [6] (1.0 M HCl) was found to be 15 h. The same compound showed a half-life at 24 h, 5 mM in data set [6] (1.0 M NaHCO3) of 65 h.

Regarding `CCCCC(=O)Oc1cccc2[nH]cc(CCN(C)C)c12.O=C(O)/C=C/C(=O)O` [Compound 4c], in data set [1], the “Metabolic stability in human microsomes” value was >200^a μL/min/mg protein and >200 μL/min/mg protein; the “Comment on microsome assay” value is “Rapid degradation”. In addition, in data set [2], the “% found in microsome suspension” value worked out at 0.2%. In data set [3], this compound registered a solubility of 87 µM. Further, in data set [4], the Co-factor experiment entry was “No degradation without co-factor”. Also, the half-life at 5 mM in data set [5] was > 167 h. Besides, the half-life at 24 h, 5 mM in data set [6] (1.0 M HCl) is 13.3 h. The compound also displayed a half-life at 24 h, 5 mM in data set [6] (1.0 M NaHCO3) of 50 h.

With `CC(C)COC(=O)Oc1cccc2[nH]cc(CCN(C)C)c12.O=CO` [Compound 4d], in data set [1], the “Metabolic stability in human microsomes” value is >200^a μL/min/mg protein and >200 μL/min/mg protein; the “Comment on microsome assay” value was “Rapid degradation”. The solubility in data set [3] was > 90 µM. The Co-factor experiment entry in data set [4] is reported as “Very low peak area for the first time point, instability suspected”. In data set [5], the half-life at 5 mM was > 167 h. Also, in data set [6] (1.0 M HCl), the half-life at 5 mM is > 167 h. In addition, in data set [6] (1.0 M NaHCO3), the half-life at 24 h, 5 mM came to 36.7 h. Also, the “degradation rate among prodrugs” value in data set [7] (FaSSIF, 20 IU/mL esterase) is listed as “fastest degradation”. Moreover, in data set [7] (after 1 min at 20 IU/mL), the “% prodrug remaining, measured after 1 min” value was determined as 7%. The predicted half-life in data set [7] (at 270 IU/mL) was 1.2 s. In data set [7] (calculated remaining prodrug available for GI absorption, predicted level after 5 min at 270 IU/mL (% remaining prodrug)), the predicted abs. is recorded as 7.0 × 10^–77. The compound also had a half-life at 0.292 mM in data set [7] (pig, FaSSIF supplemented with porcine liver esterase (20 IU/mL)) of 15.6 ± 1.2 s.

As for `CN(C)CCc1c[nH]c2cccc(OC(=O)c3ccccc3)c12.O=C(O)/C=C/C(=O)O` [Compound 4h], the “Metabolic stability in human microsomes” value in data set [1] is >200^a μL/min/mg protein and >200 μL/min/mg protein. The “Comment on microsome assay” value in data set [1] was “Rapid degradation”. Also, the “% found in microsome suspension” value in data set [2] turned out to be 44%. The solubility in data set [3] was > 90 µM. In data set [4], the Co-factor experiment entry is “Degradation without co-factor”. The microsomal CLint in data set [4] (human, human microsome suspension, both with and without the addition of NADPH, read-out: intrinsic clearance) is > 200 µL/min/mg. The half-life at 5 mM in data set [5] and in data set [6] (1.0 M HCl) was > 167 h in each case. For the same compound, in data set [6] (1.0 M NaHCO3), the half-life at 24 h, 5 mM is 150 h.

Consider `CN(C)CCc1c[nH]c2cccc(OC(=O)N3CCCCC3)c12.O=C(O)/C=C/C(=O)O` [Compound 4k], for which the “Metabolic stability in human microsomes” value in data set [1] was <10/<10^b μL/min/mg protein and <10 μL/min/mg protein. Further, the “% found in microsome suspension” value in data set [2] is on record as 79%. Further, the solubility in data set [3] was > 90 µM. The half-life at 5 mM in data set [5], in data set [6] (1.0 M HCl) and in data set [6] (1.0 M NaHCO3) was > 167 h throughout.

With `CN(C)CCc1c[nH]c2cccc(OS(=O)(=O)O)c12` [Compound 6], the “Metabolic stability in human microsomes” value in data set [1] is reported as >200 μL/min/mg protein. Also, the “Comment on microsome assay” value in data set [1] is reported as “Rapid degradation”. Moreover, in data set [2], the “% found in microsome suspension” value was 15%. The solubility in data set [3] is > 90 µM. Also, the Co-factor experiment entry in data set [4] is on record as “No degradation without co-factor”. In addition, the half-life at 5 mM in data set [5], in data set [6] (1.0 M HCl) and in data set [6] (1.0 M NaHCO3) was > 167 h in each case.

As for `CN(C)CCc1c[nH]c2cccc(O)c12` [psilocin freebase, 4-hydroxy-N,N-dimethyltryptamine], the “degradation of psilocin under UV radiation” value in data set [8] (254 nm, in EtOH, after 1.75 h) is listed as 9%. Moreover, in data set [8] (NaOH solution (1 M), after 2 h, ref 46 (Barrow et al.)), the “degradation of psilocin in NaOH solution” value is listed as 60%. Also, in data set [8] (oxidative conditions), the “degradation of psilocin in oxidative conditions” value is reported as “complete degradation after only two hours”.

Source of the values: paper PMC11997985, “Synthesis and In Vitro Profiling of Psilocin Derivatives: Improved Stability and Synthetic Properties” (Journal of Medicinal Chemistry, 2025).
